Results as given in patent US10285962B2, “Glutarate compounds for treating ischemia-reperfusion injuries” (The Regents of the University of California, priority 2016, dated 2019).

Key:
[1] = test system: myocardial infarct size in IR injury; design: protection against IR injury (TTC stained cross-sections): dose or concentration left out as unconfirmed; details: for protection against IR injury (TTC stained cross-sections): single IV bolus at reperfusion
[2] = target: heart ATP synthase (complex V) (Mus musculus, UniProt P56480); assay: respiration of mitochondria isolated from mouse heart (ATP synthase / complex V inhibition)
[3] = test system: electron flow through the ETC (Complex I, II, IV); assay: electron flow through the ETC, OCR of isolated mouse heart mitochondria; type: biochemical

CC[C@H]1/C=C/C=C/C[C@@H](C)[C@H](O)[C@@](C)(O)C(=O)[C@@H](C)[C@H](O)[C@@H](C)C(=O)[C@@H](C)[C@H](O)[C@@H](C)/C=C/C(=O)O[C@@H]2[C@H](C)[C@H](CC1)O[C@]1(CC[C@H](C)[C@H](C[C@@H](C)O)O1)[C@H]2C [oligomycin]
toxicity ([1]; 5 μM, administered at the time of reperfusion): toxic | myocardial infarct size ([1]; lower doses (e.g., 10 nM) given at reperfusion): significantly reduce myocardial infarct size

O=C(O)CCC(=O)O [succinate]
protection against IR injury (TTC stained cross-sections) [1]: does not

O=C(O)CCC(=O)C(=O)O [α-KG, α-ketoglutarate]
reduction of infarct size ([1]; mouse, in vivo): about 70% | protection in the presence of the HIF-1 inhibitor echinomycin ([1]; mouse, in vivo, iv): fully protective | complex V activity ([2]; […]): inhibits | state 3 respiration ([2]; initiated by 2 mM ADP): decreases | electron flow through the ETC ([3]; isolated mouse heart mitochondria): does not affect | Complex I, Complex II, or Complex IV respiration ([3]; sequential rotenone, succinate, antimycin A, TMPD): No difference

CC(C)(COP(=O)(O)OP(=O)(O)OC[C@H]1O[C@@H](n2cnc3c(N)ncnc32)[C@H](O)[C@@H]1OP(=O)(O)O)[C@@H](O)C(=O)NCCC(=O)NCCSC(=O)CCC(=O)O [succinyl-CoA]
protection against IR injury (TTC stained cross-sections) [1]: significant protection
